Test results from patent US7399775B2, “β-amyloid protein production/secretion inhibitor” (Daiichi Pharmaceutical Co., Ltd., priority 2001, dated 2008).

Row | Structure (SMILES) | melting point
1 | CN(C)CCCC(c1ccncc1)S(=O)(=O)c1ccc(Cl)cc1 (stereo not shown) [Example 125, 4-(4-Chlorophenylsulfonyl)-N,N-dimethyl-4-(pyridin-4-yl)butylamine] | 78 to 80 °C
2 | C[S+]([O-])CCCCC(c1ccccc1)S(=O)(=O)c1ccc(Cl)cc1 (stereo not shown) [Example 52, 1-Chloro-4-(5-methylsulfinyl-1-phenylpentyl)sulfonylbenzene] | 98.5 to 99.5 °C
3 | Cc1ccnc(C(c2cc(F)ccc2F)S(=O)(=O)c2ccc(Cl)cc2)c1 (stereo not shown) [Example 138, 2-[[(4-Chlorophenyl)sulfonyl]-(2,5-difluorophenyl)methyl]-4-methylpyridine] | 116 to 117 °C
4 | CSCCCCC(c1cc(F)ccc1F)S(=O)(=O)c1ccc(Cl)cc1 (stereo not shown) [Example 26, 2-[1-[(4-Chlorophenyl)sulfonyl]-5-(methylthio)pentyl]-1,4-difluorobenzene] | 103 to 106 °C
5 | CS(=O)(=O)CCCCC(c1cscn1)S(=O)(=O)c1ccc(Cl)cc1 (stereo not shown) [Example 112, 4-[1-(4-Chlorophenylsulfonyl)-5-(methylsulfonyl)pentyl]thiazole] | 123 to 125 °C
6 | O=C(OCCC(c1cc(F)ccc1F)S(=O)(=O)c1ccc(Cl)cc1)N1CCCC1 (stereo not shown) [Example 208, 3-[(4-Chlorophenyl)sulfonyl]-3-(2,5-difluorophenyl)propyl=1-pyrrolidinecarboxylate] | 109 to 110 °C
7 | CS(=O)(=O)CCCCC(c1cccc(Cl)c1F)S(=O)(=O)c1ccc(Cl)cc1 (stereo not shown) [Example 78, 1-Chloro-3-[1-(4-chlorophenylsulfonyl)-5-(methylsulfonyl)pentyl]-2-fluorobenzene] | 131 to 132 °C
8 | O=C(c1ccccc1)C(c1cc(F)ccc1F)S(=O)(=O)c1ccc(Cl)cc1 (stereo not shown) [Example 8, 2-[(4-Chlorophenyl)sulfonyl]-2-(2,5-difluorophenyl)-1-phenyl-1-ethanone] | 179.5 to 180 °C
9 | O=S(=O)(c1ccc(Cl)cc1)C1(c2cccnc2Cl)CCCCCC1 [Example 108, 2-Chloro-3-[1-(4-chlorophenylsulfonyl)cycloheptyl]pyridine] | 168 to 169 °C
10 | O=C(O)CCCCCC(c1cc(F)ccc1F)S(=O)(=O)c1ccc(Cl)cc1 (stereo not shown) [Example 205, 7-[(4-Chlorophenyl)sulfonyl]-7-(2,5-difluorophenyl)heptanoic Acid] | 72 to 76 °C
11 | Cn1c(Cl)cnc1C(c1cc(F)ccc1F)S(=O)(=O)c1ccc(Cl)cc1 (stereo not shown) [Example 151, 2-[[(4-Chlorophenyl)sulfonyl]-(2,5-difluorophenyl)methyl]-1-methyl-5-chloro-1H-imidazole] | 179 to 180 °C
12 | O=C1OCCN1CCCC(c1cc(F)ccc1F)S(=O)(=O)c1ccc(Cl)cc1 (stereo not shown) [Example 225, 3-[4-[(4-Chlorophenyl)sulfonyl]-4-(2,5-difluorophenyl)butyl]-2-oxazolidinone] | 156 to 159 °C
13 | O=S(=O)(c1ccc(Cl)cc1)C1(c2cc(F)ccc2F)CC1 [Example 233, 2-[1-[(4-Chlorophenyl)sulfonyl]cyclopropyl]-1,4-difluorobenzene] | 177 to 179 °C
14 | CC(C)(C)OC(=O)CC(c1cc(F)ccc1F)S(=O)(=O)c1ccc(Cl)cc1 (stereo not shown) [Example 61, t-Butyl 3-[(4-chlorophenyl)sulfonyl]-3-(2,5-difluorophenyl)propionate] | 140.5 to 142 °C
15 | C=COCCOCCC(c1cc(F)ccc1F)S(=O)(=O)c1ccc(Cl)cc1 (stereo not shown) [Example 34, 2-[1-[(4-Chlorophenyl)sulfonyl]-3-(2-vinyloxyethoxy)propyl]-1,4-difluorobenzene] | 55 to 56 °C
16 | O=S(=O)(c1ccc(Cl)cc1)C1(c2cnccc2Cl)CCCCC1 [Example 110, 4-Chloro-3-[1-(4-chlorophenylsulfonyl)cyclohexyl]pyridine] | 145 to 147 °C
17 | Cl.O=S(=O)(c1ccc(Cl)cc1)C(CCNCCO)c1cc(F)ccc1F (stereo not shown) | 216 to 220 °C
18 | CN(C)CCC(c1ccncc1)S(=O)(=O)c1ccc(Cl)cc1 (stereo not shown) [Example 126, 3-(4-Chlorophenylsulfonyl)-N,N-dimethyl-3-(pyridin-4-yl)propylamine] | 91 to 92 °C
19 | O=C(CC(c1cc(F)ccc1F)S(=O)(=O)c1ccc(Cl)cc1)N1CCCC1 (stereo not shown) [Example 198, 3-[(4-Chlorophenyl)sulfonyl]-3-(2,5-difluorophenyl)-1-(1-pyrrolildinyl)-1-propanone] | 122 to 125 °C
20 | CS(=O)(=O)CCCCC(c1ccc(Cl)c(Cl)c1)S(=O)(=O)c1ccc(Cl)cc1 (stereo not shown) [Example 69, 1,2-Dichloro-4-[1-[(4-chlorophenyl)sulfonyl]-5-(methylsulfonyl)pentyl]benzene] | 143 to 144 °C
21 | CC(CCCO)C(c1cc(F)ccc1F)S(=O)(=O)c1ccc(Cl)cc1 (stereo not shown) [Example 40, 5-[(4-Chlorophenyl)sulfonyl]-5-(2,5-difluorophenyl)-4-methyl-1-pentanol] | 67 to 69 °C
22 | O=S(=O)(c1ccc(Cl)cc1)C(CCCCF)c1cc(F)ccc1F (stereo not shown) [Example 231, 2-[1-(4-Chlorophenylsulfonyl)-5-fluoropentyl]-1,4-difluorobenzene] | 77 to 78 °C
23 | NC(=O)OCCC(c1cc(F)ccc1F)S(=O)(=O)c1ccc(Cl)cc1 (stereo not shown) [Example 214, 3-[(4-Chlorophenyl)sulfonyl]-3-(2,5-difluorophenyl)propyl=carbamate] | 139 to 140 °C
24 | O=S(=O)(c1ccc(Cl)cc1)C(c1nccs1)c1cc(F)ccc1F (stereo not shown) [Example 152, 2-[[(4-Chlorophenyl)sulfonyl]-(2,5-difluorophenyl)methyl]thiazole] | 163 to 164 °C
25 | O=S(=O)(c1ccc(Cl)cc1)C1(c2cccnc2Cl)CCCCC1 [Example 109, 2-Chloro-3-[1-(4-chlorophenylsulfonyl)cyclohexyl]pyridine] | 129 to 131 °C

Now from value to molecule:

Row | melting point | Structure (SMILES)
26 | 105 to 107 °C | O=S(=O)(c1ccc(Cl)cc1)C(c1cc(F)ccc1F)C(O)CCCCO (stereo not shown) [Example 236, 6-[(4-Chlorophenyl)sulfonyl]-6-(2,5-difluorophenyl)-1,5-hexanediol]
27 | 159 to 160 °C | CC(=O)N1CCC(c2cc(F)ccc2F)(S(=O)(=O)c2ccc(Cl)cc2)CC1 [Example 263, 1-[4-[(4-Chlorophenyl)sulfonyl]-4-(2,5-difluorophenyl)piperidino]-1-ethanone]
28 | 120 to 121 °C | O=S(=O)(c1ccc(Cl)cc1)C(c1ccc(CN2CCOCC2)cn1)c1cc(F)ccc1F (stereo not shown) [Example 337, 4-[[6-[(4-Chlorophenylsulfonyl)-(2,5-difluorophenyl)methyl]pyridin-3-yl]methyl]morpholine]
29 | 188 to 190 °C | O=S(=O)(c1ccc(Cl)cc1)C1(c2cc(F)ccc2F)CCSCC1 [Example 251, 4-[(4-Chlorophenyl)sulfonyl]-4-(2,5-difluorophenyl)tetrahydrothiopyran]
30 | 108 to 109 °C | O=S(=O)(c1ccc(Cl)cc1)C(c1cc(F)ccc1F)C(O)CCCCO (stereo not shown) [Example 235, 6-[(4-Chlorophenyl)sulfonyl]-6-(2,5-difluorophenyl)-1,5-hexanediol]
31 | 105 to 109 °C | CC1CCCC1(c1cc(F)ccc1F)S(=O)(=O)c1ccc(Cl)cc1 (stereo not shown) [Example 279, 2-[1-[(4-Chlorophenyl)sulfonyl]-2-methylcyclopentyl]-1,4-difluorobenzene]
32 | 88 to 92 °C | CN(C)CC(=O)N1CCC(c2cc(F)ccc2F)(S(=O)(=O)c2ccc(Cl)cc2)CC1 [Example 271, 1-[4-[(4-Chlorophenyl)sulfonyl]-4-(2,5-difluorophenyl)piperidino]-2-(dimethylamino)-1-ethanone]
33 | 129 to 131 °C | O=S(=O)(c1ccc(Cl)cc1)C(CCc1ccccn1)c1cc(F)ccc1F (stereo not shown) [Example 318, 2-[3-(4-chlorophenylsulfonyl)-3-(2,5-difluorophenyl)propyl]pyridine]
34 | 69 to 71 °C | CC1(C)COC(CCC(c2cc(F)ccc2F)S(=O)(=O)c2ccc(Cl)cc2)OC1 (stereo not shown) [Example 321, 2-[3-(4-Chlorophenylsulfonyl)-3-(2,5-difluorophenyl)propyl]-5,5-dimethyl-1,3-dioxane]
35 | 82 to 83 °C | O=S(=O)(c1ccc(Cl)cc1)C(CCC1CCCCC1)c1cc(F)ccc1F (stereo not shown) [Example 316, 2-[1-(4-Chlorophenylsulfonyl)-3-cyclohexylpropyl]-1,4-difluorobenzene]
36 | > 230 °C | O=C(O)c1ccc(C(c2cc(F)ccc2F)S(=O)(=O)c2ccc(Cl)cc2)nc1 (stereo not shown) [Example 338, [6-[(4-Chlorophenylsulfonyl)-(2,5-difluorophenyl)methyl]pyridin-3-yl]carboxylic Acid]
37 | 93 to 94 °C | O=S(=O)(c1ccc(Cl)cc1)C(CCC1CCCC1)c1cc(F)ccc1F (stereo not shown) [Example 315, 2-[1-(4-Chlorophenylsulfonyl)-3-cyclopentylpropyl]-1,4-difluorobenzene]
38 | 65 to 67 °C | CC(CCO)C(c1cc(F)ccc1F)S(=O)(=O)c1ccc(Cl)cc1 (single isomer, unassigned) [Example 239, 4-(4-Chlorophenylsulfonyl)-4-(2,5-difluorophenyl)-3-methyl-1-butanol]
39 | 148 to 150 °C (dec.) | O=S(=O)(c1ccc(Cl)cc1)C1(c2ccccc2CO)CCCCC1 [Example 286, [2-[1-[(4-Chlorophenyl)sulfonyl]cyclohexyl]phenyl]methanol]
40 | 209 to 210 °C (dec.) | O=S(=O)(c1ccc(Cl)cc1)C1(c2cc(F)ccc2F)Cc2ccccc2C1 [Example 278, 2-[(4-Chlorophenyl)sulfonyl]-2-(2,5-difluorophenyl)indane]
41 | 121 to 123 °C | COC(=O)CCc1ccc(C(c2cc(F)ccc2F)S(=O)(=O)c2ccc(Cl)cc2)nc1 (stereo not shown) [Example 333, Methyl 3-[6-[(4-chlorophenylsulfonyl)-(2,5-difluorophenyl)methyl]pyridin-3-yl]propionate]
42 | 111 to 113 °C | O=S(=O)(c1ccc(Cl)cc1)C(CCc1ccccc1)c1cc(F)ccc1F (stereo not shown) [Example 304, 2-[1-(4-Chlorophenylsulfonyl)-3-phenylpropyl]-1,4-difluorobenzene]
43 | 147 to 148 °C | O=S(=O)(c1ccc(Cl)cc1)C(c1cc(F)ccc1F)c1cc(Cl)ncc1Cl (stereo not shown) (hydrate or solvate) [Example 345, 2,5-Dichloro-4-[(4-chlorophenylsulfonyl)-(2,5-difluorophenyl)methyl]pyridine 0.5 hydrate]
